In patent publication US11970494B2, “6-heteroaryloxy benzimidazoles and azabenzimidazoles as JAK2 inhibitors” (Ajax Therapeutics, Inc., priority 2021, dated 2024):
In brackets after ≈: the same amount, converted by molar mass.

Experiments:
[1] = Kinetic Solubility Assay; format: physicochemical; settings: aqueous buffer, kinetic from dmso stock, kinetic solubility in PBS (pH 4.0 and pH 7.4 in method; pH of table values not stated), RT
Description: Stock solutions of test compounds are prepared in DMSO at the concentration of 10 mM, and a stock solution of control compound is prepared in DMSO at the concentration of 30 mM. Diclofenac is used as positive control in the assay. 30 μL stock solution of each compound is placed into their a 96-well rack, followed by adding 970 μL of PBS at pH 4.0 and pH 7.4 into each vial of the cap-less solubility sample plate. This study is performed in duplicate. One stir stick is added to each vial and then vials are sealed using a molded PTDE/SIL 96-Well Plate Cover. The solubility sample plate is transferred to the Thermomixer comfort plate shaker and incubated at RT for 2 hours with shaking at 1100 rpm. After 2 hours incubation, stir sticks are removed using a big magnet and all samples from the solubility sample plate are transferred into the filter plate. All the samples are filtered by vacuum manifold. The filtered samples are diluted with methanol. Samples are analyzed by LC-MS/MS and quantified against a standard of known concentration in DMSO using LC coupled with Mass spectral peak identification and quantitation. The solubility values of the test compounds are calculated as follows, wherein INJ VOL is injection volume, DF is dilution factor, and STD is standard: […]

[2] = biological target: T1, JAK1 (Homo sapiens, UniProt P23458); experiment: JAK Family Selectivity Assay: JAK1 vs JAK2 binding affinity; settings: Kd JAK1 over Kd JAK2
T1 construct: made in house; host or cells: T7 phage in BL21-derived E. coli or HEK-293 cells
Description: Provided compounds are evaluated for selectivity by comparing their JAK2 binding affinity (Kd) in the above JAK2 Binding Assay with their binding affinity (Kd) for one or more other kinases. Binding affinity for other kinases is determined as follows: Kinase-tagged T7 phage strains are prepared in an E. coli host derived from the BL21 strain. E. coli are grown to log-phase and infected with T7 phage and incubated with shaking at 32° C. until lysis. The lysates are centrifuged and filtered to remove cell debris. The remaining kinases are produced in HEK-293 cells and subsequently tagged with DNA for qPCR detection. Streptavidin-coated magnetic beads are treated with biotinylated small molecule ligands for 30 minutes at room temperature to generate affinity resins for kinase assays. The liganded beads are blocked with excess biotin and washed with blocking buffer (SeaBlock (Pierce), 1% BSA, 0.05% Tween 20, 1 mM DTT) to remove unbound ligand and to reduce non-specific binding. Binding reactions are assembled by combining kinases, liganded affinity beads, and test compounds in 1× binding buffer (20% SeaBlock, 0.17×PBS, 0.05% Tween 20, 6 mM DTT). Test compounds are prepared as 111× stocks in 100% DMSO. Kds are determined using an 11-point 3-fold compound dilution series with three DMSO control points. All compounds for Kd measurements are distributed by acoustic transfer (non-contact dispensing) in 100% DMSO. The compounds are then diluted directly into the assays such that the final concentration of DMSO is 0.9%. All reactions are performed in polypropylene 384-well plate. Each has a final volume of 0.02 ml. The assay plates are incubated at room temperature with shaking for 1 hour and the affinity beads are washed with wash buffer (1×PBS, 0.05% Tween 20). The beads are then re-suspended in elution buffer (1× PBS, 0.05% Tween 20, 0.5 μM non-biotinylated affinity ligand) and incubated at room temperature with shaking for 30 minutes. The kinase concentration in the eluates is measured by qPCR. […] In some embodiments, provided compounds may be JAK2-selective over one or more of the following kinases: JAK1, JAK3, and Tyk2.

[3] = tested on: JAK2-mediated pSTAT5 signaling in constitutively active essential thrombocytopenia cells carrying the V617F mutation; experiment: SET2-pSTAT5 Cellular Assay; format: cell-based; settings: Homo sapiens, SET-2; SET2 cells, pSTAT5, 4 hours, MSD; read-out: IC50
Description: This assay measures inhibition of JAK2-mediated pSTAT5 signaling in constitutively active essential thrombocytopenia cells carrying the V617F mutation. Cells are harvested from a flask into cell culture medium, and the number of cells is counted. The cells are diluted with culture medium and 100 μL of cell suspension (50000/well) is added into each well of a 96-well cell culture plate. A solution of test compound is added to the assay plate. The plates are covered with a lid and placed in a 37° C. 5% CO2 incubator for 4 hours. After 4 hours, the cells are spun, and the cell pellets are re-suspended with 100 μL cold PBS. Then, the cells are spun again at 4° C. and 4000 rpm for 5 min. PBS is aspirated, and 25 μL lysis buffer (with protease and phosphatase inhibitor cocktail) is added to each cell pellet. The cell lysate is shaken at 4° C. for 20 min to fully lyse the cells. The cell lysate is spun at 4° C. and 4000 rpm for 15 min, and then the supernatant is transferred into a new plate and stored at −80° C. Meso-scale discovery (MSD) is used to analyze plates as follows: a standard MSD plate is coated with capture antibody in PBS (40 μL/well) and is incubated at 4° C. overnight with shaking. The MSD plate is washed three times with 150 μL/well of 1×MSD Wash Buffer (Tris-buffered saline with 0.1% Tween® 20 detergent, TBST). The MSD plates are then blocked with 150 μL of blocking buffer (5% BSA in TBST) and shaken for 1 h at room temperature and 600 rpm. The MSD plate is washed three times with 150 μL/well of 1×MSD Wash Buffer (TBST). Sample lysates are then added to MSD plates (25 μL/well) and shaken for 1 h at room temperature and 600 rpm. The MSD plate is washed three times with 150 μL/well of 1×MSD Wash Buffer (TBST). Detection antibody (prepared in Antibody Detection buffer, 1% BSA in 1×TBST) is then added to the MSD plates, and they are shaken for 1 h at room temperature and 600 rpm. The MSD plate is washed three times with 150 μL/well of 1×MSD Wash Buffer (TBST). A secondary detection antibody (prepared in Antibody Detection buffer, 1% BSA in 1×TBST) is then added to the MSD plates, and they are shaken for 1 h at room temperature and 600 rpm. The MSD plate is washed three times with 150 μL/well of 1×MSD Wash Buffer (TBST). MSD reading buffer (1×) is added to the plates (150 μL/well), and they are diluted from 4× with water. The plates are imaged using an MSD imaging instrument according to the manufacturer's instructions.

[4] = biological target: T2, JAK2 (JH1 domain-catalytic, Y1007F,Y1008F) kinase (Homo sapiens, UniProt O60674, Y1007F/Y1008F); experiment: JAK2 Binding Assay (JAK2 JH1 Domain Binding Assay); settings: JAK2 JH1 domain binding, qPCR detection; read-out: JAK2 Kd
T2 construct: made in house; host or cells: transiently transfected HEK293 cells
T2 sequence (O60674 849-1124 Y1007F/Y1008F limits assumed): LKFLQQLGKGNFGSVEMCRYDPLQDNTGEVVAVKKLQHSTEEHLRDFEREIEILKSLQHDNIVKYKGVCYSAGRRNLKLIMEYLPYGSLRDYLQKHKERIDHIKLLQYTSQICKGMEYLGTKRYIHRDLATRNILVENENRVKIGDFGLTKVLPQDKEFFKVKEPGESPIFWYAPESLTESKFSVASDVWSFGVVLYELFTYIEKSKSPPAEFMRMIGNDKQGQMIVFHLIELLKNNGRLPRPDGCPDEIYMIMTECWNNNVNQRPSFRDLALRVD

T1 sequence (P23458 whole entry): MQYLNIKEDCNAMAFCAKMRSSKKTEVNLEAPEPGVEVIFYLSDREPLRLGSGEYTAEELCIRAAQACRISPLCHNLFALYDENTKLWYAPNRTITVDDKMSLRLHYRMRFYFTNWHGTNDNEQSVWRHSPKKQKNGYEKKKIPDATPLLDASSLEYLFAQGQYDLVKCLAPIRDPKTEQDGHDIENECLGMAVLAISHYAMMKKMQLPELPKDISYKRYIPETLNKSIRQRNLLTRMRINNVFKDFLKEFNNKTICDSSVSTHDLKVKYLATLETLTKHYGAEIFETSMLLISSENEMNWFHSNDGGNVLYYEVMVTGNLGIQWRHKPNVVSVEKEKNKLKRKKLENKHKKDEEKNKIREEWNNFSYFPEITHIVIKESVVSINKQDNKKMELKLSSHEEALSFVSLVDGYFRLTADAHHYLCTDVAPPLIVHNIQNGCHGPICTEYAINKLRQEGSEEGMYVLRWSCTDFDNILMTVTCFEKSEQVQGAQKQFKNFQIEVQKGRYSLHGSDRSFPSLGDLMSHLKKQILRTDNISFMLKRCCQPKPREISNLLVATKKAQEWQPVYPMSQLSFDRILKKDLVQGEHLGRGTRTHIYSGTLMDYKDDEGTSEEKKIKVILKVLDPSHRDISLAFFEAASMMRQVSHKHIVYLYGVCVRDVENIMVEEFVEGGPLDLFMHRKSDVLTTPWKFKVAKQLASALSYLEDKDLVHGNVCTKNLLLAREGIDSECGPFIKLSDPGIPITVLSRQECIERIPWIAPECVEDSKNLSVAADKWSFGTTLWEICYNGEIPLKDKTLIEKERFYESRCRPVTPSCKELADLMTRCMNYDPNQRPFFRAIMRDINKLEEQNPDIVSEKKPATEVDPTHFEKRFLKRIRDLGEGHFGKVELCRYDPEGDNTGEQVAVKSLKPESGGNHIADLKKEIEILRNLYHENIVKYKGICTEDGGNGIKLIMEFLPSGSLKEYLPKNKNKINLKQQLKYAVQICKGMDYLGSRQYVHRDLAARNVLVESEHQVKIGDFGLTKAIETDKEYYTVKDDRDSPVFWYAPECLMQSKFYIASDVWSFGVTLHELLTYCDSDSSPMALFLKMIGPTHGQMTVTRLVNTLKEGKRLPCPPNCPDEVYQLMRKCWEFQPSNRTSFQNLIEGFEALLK

SMILES | solubility at 2 h [1] [µM] | JAK1/JAK2 Kd/Kd ratio [2] | IC50 [3] [nM] | Kd [4] [nM]
Cn1cc(C(F)(F)F)cc(Nc2nc3ncc(Oc4ccnc(NC(=O)O[C@@H]5CCOC5)c4)c(C#N)c3n2C)c1=O [Example I-18, (R)-Tetrahydrofuran-3-yl(4-((7-cyano-1-methyl-2-((1-methyl-2-oxo-5-(trifluoromethyl)-1,2-dihydropyridin-3-yl)amino)-1H-imidazo[4,5-b]pyridin-6-yl)oxy)pyridin-2-yl)carbamate] | 0.1 to 9 (≈ 0.057 to 5.13 µg/mL) | C (Kd/Kd ratio <300 and ≥100) | < 125 | < 10
CO[C@@H]1CCN(C(=O)Nc2cc(Oc3cnc4nc(Nc5cc6n(n5)CCC65CCC5)n(C)c4c3C#N)ccn2)C1 [Example I-60, (R)-N-(4-((7-cyano-2-((5′,6′-dihydrospiro[cyclobutane-1,4′-pyrrolo[1,2-b]pyrazol]-2′-yl)amino)-1-methyl-1H-imidazo[4,5-b]pyridin-6-yl)oxy)pyridin-2-yl)-3-methoxypyrrolidine-1-carboxamide] | 9 to 100 (≈ 4.99 to 55.5 µg/mL) | B (Kd/Kd ratio <1000 and ≥300) | < 125 | < 10
COC1CN(C(=O)Nc2cc(Oc3cnc4nc(Nc5cc6n(n5)CCC65CCC5)n(C)c4c3C#N)ccn2)C1 [Example I-61, N-(4-((7-cyano-2-((5′,6′-dihydrospiro[cyclobutane-1,4′-pyrrolo[1,2-b]pyrazol]-2′-yl)amino)-1-methyl-1H-imidazo[4,5-b]pyridin-6-yl)oxy)pyridin-2-yl)-3-methoxyazetidine carboxamide] | 0.1 to 9 (≈ 0.0541 to 4.87 µg/mL) | A (Kd/Kd ratio ≥1000) | < 125 | < 10
COCCOC(=O)Nc1cc(Oc2cnc3nc(Nc4cc5n(n4)CCC54CCC4)n(C)c3c2C#N)ccn1 [Example I-62, 2-methoxyethyl(4-((7-cyano-2-((5′,6′-dihydrospiro[cyclobutane-1,4′-pyrrolo[1,2-b]pyrazol]-2′-yl)amino)-1-methyl-1H-imidazo[4,5-b]pyridin-6-yl)oxy)pyridin-2-yl)carbamate] | 0.1 to 9 (≈ 0.053 to 4.77 µg/mL) | B (Kd/Kd ratio <1000 and ≥300) | < 125 | < 10
COCC(=O)Nc1cc(Oc2cnc3nc(Nc4cc(C(F)(F)F)cn(C)c4=O)n(C)c3c2Cl)ccn1 [Example I-75, N-(4-((7-chloro-1-methyl-2-((1-methyl-2-oxo-5-(trifluoromethyl)-1,2-dihydropyridin-3-yl)amino)-1H-imidazo[4,5-b]pyridin-6-yl)oxy)pyridin-2-yl)-2-methoxyacetamide] | 0.1 to 9 (≈ 0.0538 to 4.84 µg/mL) | A (Kd/Kd ratio ≥1000) | < 125 | < 10
COCC(=O)Nc1cc(Oc2cnc3nc(Nc4cc(C(F)(F)F)cn(C)c4=O)n(C)c3c2C#N)ccn1 [Example I-79, N-(4-((7-cyano-1-methyl-2-((1-methyl-2-oxo-5-(trifluoromethyl)-1,2-dihydropyridin-3-yl)amino)-1H-imidazo[4,5-b]pyridin-6-yl)oxy)pyridin-2-yl)-2-methoxyacetamide] | 0.1 to 9 (≈ 0.0528 to 4.76 µg/mL) | C (Kd/Kd ratio <300 and ≥100) | < 125 | < 10
CC(=O)Nc1cc(Oc2cnc3nc(Nc4cc(C(F)(F)F)cn(C)c4=O)n(C)c3c2Cl)c(F)cn1 [Example I-88, N-(4-((7-chloro-1-methyl-2-((1-methyl-2-oxo-5-(trifluoromethyl)-1,2-dihydropyridin-3-yl)amino)-1H-imidazo[4,5-b]pyridin-6-yl)oxy)-5-fluoropyridin-2-yl)acetamide] | 0.1 to 9 (≈ 0.0526 to 4.73 µg/mL) | B (Kd/Kd ratio <1000 and ≥300) | < 125 | < 10
Cn1c(Nc2cc3n(n2)CCC32CCC2)nc2ncc(Oc3ccnc(NC(=O)C4CC4)c3)c(C#N)c21 [Example I-122, N-(4-((7-cyano-2-((5′,6′-dihydrospiro[cyclobutane-1,4′-pyrrolo[1,2-b]pyrazol]-2′-yl)amino)-1-methyl-1H-imidazo[4,5-b]pyridin-6-yl)oxy)pyridin-2-yl)cyclopropanecarboxamide] | 0.1 to 9 (≈ 0.0496 to 4.46 µg/mL) | D (Kd/Kd ratio <100) | < 125 | < 10
CCN1CCN(Cc2ccc(Nc3nc4ccc(Oc5ccnc(NC(C)=O)c5)cc4n3C)cc2C(F)(F)F)CC1 [Example R-1, reference compound] | 100 to 200 (≈ 56.8 to 114 µg/mL) | C (Kd/Kd ratio <300 and ≥100) | 200 to 1000 | < 10
